Test results from ChEMBL document CHEMBL5244219, “Recent developments of quinolone-based derivatives and their activities against Escherichia coli” (Eur J Med Chem, 2018).
Converted amounts (≈) assume the structure as drawn.

What follows are compounds tested on Escherichia coli (assay: Antibacterial activity against Escherichia coli assessed as bacterial growth inhibition).
Type: functional

| Compound | MIC |
| --- | --- |
| COc1cc(OC)cc(-c2nn(CN3CCN(c4cc5c(cc4F)c(=O)c(C(=O)O)cn5[C@@H]4C[C@@H]4F)CC3)c(=S)n2-c2ccccc2)c1 | ≤ 0.04 µg/mL |
| COc1cc(-c2nn(CN3CCN(c4cc5c(cc4F)c(=O)c(C(=O)O)cn5[C@@H]4C[C@@H]4F)CC3)c(=S)n2-c2ccccc2)cc(OC)c1OC | ≤ 0.04 µg/mL |
| COc1ccc(-c2nn(CN3CCN(c4cc5c(cc4F)c(=O)c(C(=O)O)cn5[C@@H]4C[C@@H]4F)CC3)c(=S)n2-c2ccccc2)cc1OC | ≤ 0.04 µg/mL |
| O=C(O)c1cn([C@@H]2C[C@@H]2F)c2cc(N3CCN(Cn4nc(-c5ccccc5O)n(-c5ccccc5)c4=S)CC3)c(F)cc2c1=O | ≤ 0.04 µg/mL |
| C[C@H]1COc2c(N3CCC4(CCN(C)C4)C3)c(F)cc3c(=O)c(C(=O)O)cn1c23 (stereo partly specified) | 0.025 µg/mL (≈ 0.0623 µM) |
| CC1(C)S[C@@H]2[C@H](NC(=O)[C@H](N)c3ccc(O)cc3)C(=O)N2[C@H]1C(=O)O [AMOXICILLIN] | 2 µg/mL (≈ 5.47 µM) |
| CN1CCN(c2c(F)cc3c(=O)c(C(=O)O)cn4c3c2SCC4)CC1 [RUFLOXACIN] | 0.25 µg/mL (≈ 0.688 µM) |

The compounds below were run on Escherichia coli (assay: Antibacterial activity against Escherichia coli NIHJ JC-2 assessed as bacterial growth inhibition).
Type: functional

| Compound | MIC |
| --- | --- |
| NCC1CCN(c2c(F)c3c(c(=O)c(C(=O)O)cn3C3CC3)c3[nH]nnc23)C1 (stereo unspecified) | 0.025 µg/mL (≈ 0.0647 µM) |
| NC1CCN(c2c(Cl)c3c(c(=O)c(C(=O)O)cn3C3CC3)c3[nH]nnc23)C1 (stereo unspecified) | 0.025 µg/mL (≈ 0.0643 µM) |
| NC1CCN(c2c(F)c3c(c(=O)c(C(=O)O)cn3C3CC3)c3[nH]nnc23)C1 (stereo unspecified) | 0.025 µg/mL (≈ 0.0671 µM) |
| NC1CCN(c2cc3c(c(=O)c(C(=O)O)cn3C3CC3)c3[nH]cnc23)C1 (stereo unspecified) | 0.025 µg/mL (≈ 0.0707 µM) |
| NCC1CCN(c2cc3c(c(=O)c(C(=O)O)cn3C3CC3)c3[nH]cnc23)C1 (stereo unspecified) | 0.025 µg/mL (≈ 0.068 µM) |
| O=C(O)c1cn(C2CC2)c2cc(N3CCNCC3)c3nc[nH]c3c2c1=O | 0.025 µg/mL (≈ 0.0707 µM) |
| CN1CCN(c2c(Cl)c3c(c(=O)c(C(=O)O)cn3C3CC3)c3[nH]nnc23)CC1 | 0.025 µg/mL (≈ 0.0621 µM) |
| NC1CCN(c2c(F)c3c(c(=O)c(C(=O)O)cn3C3CC3)c3[nH]cnc23)C1 (stereo unspecified) | 0.025 µg/mL (≈ 0.0673 µM) |
| O=C(O)c1cn(C2CC2)c2c(Cl)c(N3CCNCC3)c3nc[nH]c3c2c1=O | 0.025 µg/mL (≈ 0.0645 µM) |
| O=C(O)c1cn(C2CC2)c2c(F)c(N3CCNCC3)c3nn[nH]c3c2c1=O | 0.025 µg/mL (≈ 0.0671 µM) |
| CN1CCN(c2cc3c(c(=O)c(C(=O)O)cn3C3CC3)c3[nH]cnc23)CC1 | 0.025 µg/mL (≈ 0.068 µM) |
| NCC1CCN(c2c(F)c3c(c(=O)c(C(=O)O)cn3C3CC3)c3[nH]cnc23)C1 (stereo unspecified) | 0.025 µg/mL (≈ 0.0649 µM) |
| CN1CCN(c2cc3c(c(=O)c(C(=O)O)cn3C3CC3)c3[nH]nnc23)CC1 | 0.025 µg/mL (≈ 0.0679 µM) |
| CN1CCN(c2c(Cl)c3c(c(=O)c(C(=O)O)cn3C3CC3)c3[nH]cnc23)CC1 | 0.025 µg/mL (≈ 0.0622 µM) |
| CN1CCN(c2c(F)c3c(c(=O)c(C(=O)O)cn3C3CC3)c3[nH]cnc23)CC1 | 0.025 µg/mL (≈ 0.0649 µM) |
| O=C(O)c1cn(C2CC2)c2c(F)c(N3CCNCC3)c3nc[nH]c3c2c1=O | 0.025 µg/mL (≈ 0.0673 µM) |
| NC1CCN(c2c(Cl)c3c(c(=O)c(C(=O)O)cn3C3CC3)c3[nH]cnc23)C1 (stereo unspecified) | 0.025 µg/mL (≈ 0.0645 µM) |
| CN1CCN(c2c(F)c3c(c(=O)c(C(=O)O)cn3C3CC3)c3[nH]nnc23)CC1 | 0.025 µg/mL (≈ 0.0647 µM) |
| C[C@@H]1CN(c2c(F)c(N)c3c(=O)c(C(=O)O)cn(C4CC4)c3c2F)C[C@H](C)N1 [SPARFLOXACIN] | 0.0125 µg/mL (≈ 0.0319 µM) |

The compounds below were run on Escherichia coli (assay: Antibacterial activity against Escherichia coli NCDC 134 assessed as bacterial growth inhibition).
Type: functional

| Compound | MIC |
| --- | --- |
| O=C(CN1CCN(c2cc3c(cc2F)c(=O)c(C(=O)O)cn3C2CC2)CC1)Nc1nc2ccc([N+](=O)[O-])cc2s1 | 6 µg/mL (≈ 10.6 µM) |
| O=C(CN1CCN(c2cc3c(cc2F)c(=O)c(C(=O)O)cn3C2CC2)CC1)Nc1nc2ccc(Cl)cc2s1 | 6 µg/mL (≈ 10.8 µM) |
| O=C(CN1CCN(c2cc3c(cc2F)c(=O)c(C(=O)O)cn3C2CC2)CC1)Nc1nc2c(Cl)ccc(Cl)c2s1 | 6 µg/mL (≈ 10.2 µM) |
| O=C(N/N=C/c1ccc2c(c1)OCO2)c1cn(C2CC2)c2cc(N3CCNCC3)c(F)cc2c1=O | > 64 µg/mL |
| O=C(N/N=C/c1ccc(F)cc1)c1cn(C2CC2)c2cc(N/N=C/c3ccc(F)cc3)c(F)cc2c1=O | > 64 µg/mL |
| O=C(N/N=C/c1ccc2c(c1)OCO2)c1cn(C2CC2)c2cc(N/N=C/c3ccc4c(c3)OCO4)c(F)cc2c1=O | > 64 µg/mL |
| O=C(N/N=C/c1ccccc1O)c1cn(C2CC2)c2cc(N3CCNCC3)c(F)cc2c1=O | > 64 µg/mL |
| COc1ccc(/C=N/NC(=O)c2cn(C3CC3)c3cc(N/N=C/c4ccc(OC)c(O)c4)c(F)cc3c2=O)cc1O | > 64 µg/mL |
| COc1ccc(/C=N/NC(=O)c2cn(C3CC3)c3cc(N4CCNCC4)c(F)cc3c2=O)cc1O | > 64 µg/mL |
| O=C(N/N=C/c1ccccc1)c1cn(C2CC2)c2cc(N3CCNCC3)c(F)cc2c1=O | > 64 µg/mL |
| COc1ccc(/C=N/NC(=O)c2cn(C3CC3)c3cc(N/N=C/c4ccc(OC)cc4)c(F)cc3c2=O)cc1 | > 64 µg/mL |
| O=C(N/N=C/c1ccccc1O)c1cn(C2CC2)c2cc(N/N=C/c3ccccc3O)c(F)cc2c1=O | > 64 µg/mL |
| COc1ccc(/C=N/NC(=O)c2cn(C3CC3)c3cc(N4CCNCC4)c(F)cc3c2=O)cc1 | > 64 µg/mL |
| O=C(N/N=C/c1ccccc1)c1cn(C2CC2)c2cc(N/N=C/c3ccccc3)c(F)cc2c1=O | > 64 µg/mL |
| COc1cc(/C=N/NC(=O)c2cn(C3CC3)c3cc(N4CCNCC4)c(F)cc3c2=O)cc(OC)c1OC | > 64 µg/mL |
| O=C(N/N=C/c1ccc(F)cc1)c1cn(C2CC2)c2cc(N3CCNCC3)c(F)cc2c1=O | > 64 µg/mL |
| COc1cc(/C=N/NC(=O)c2cn(C3CC3)c3cc(N/N=C/c4cc(OC)c(OC)c(OC)c4)c(F)cc3c2=O)cc(OC)c1OC | > 64 µg/mL |
| CCN(CC)Cc1cn(-c2cc3c(cc2F)c(=O)c(C(=O)NO)cn3C2CC2)nn1 | > 64 µg/mL |
| CC(C)NCc1cn(-c2cc3c(cc2F)c(=O)c(C(=O)NO)cn3C2CC2)nn1 | > 64 µg/mL |

| Compound | MIC |
| --- | --- |
| Cc1ccc2nc(NC(=O)CN3CCN(c4cc5c(cc4F)c(=O)c(C(=O)O)cn5C4CC4)CC3)sc2c1 | 6 µg/mL (≈ 11.2 µM) |
| CN(C)Cc1cn(-c2cc3c(cc2F)c(=O)c(C(=O)NO)cn3C2CC2)nn1 | > 64 µg/mL |
| CCn1cc(C(=O)O)c(=O)c2cc(F)c(N3CCN(CC(=O)Nc4nc5ccc(C)cc5s4)CC3)cc21 | 6 µg/mL (≈ 11.5 µM) |
| CCn1cc(C(=O)O)c(=O)c2cc(F)c(N3CCN(CC(=O)Nc4nc5c(Cl)ccc(Cl)c5s4)CC3)cc21 | 6 µg/mL (≈ 10.4 µM) |
| O=C(N/N=C/c1ccc([N+](=O)[O-])cc1)c1cn(C2CC2)c2cc(N/N=C/c3ccc([N+](=O)[O-])cc3)c(F)cc2c1=O | > 64 µg/mL |
| CCCN(CCC)Cc1cn(-c2cc3c(cc2F)c(=O)c(C(=O)NO)cn3C2CC2)nn1 | > 64 µg/mL |
| CCn1cc(C(=O)O)c(=O)c2cc(F)c(N3CCN(CC(=O)Nc4nc5ccc(F)cc5s4)CC3)cc21 | 6 µg/mL (≈ 11.4 µM) |
| CCn1cc(C(=O)O)c(=O)c2cc(F)c(N3CCN(CC(=O)Nc4nc5ccc([N+](=O)[O-])cc5s4)CC3)cc21 | 6 µg/mL (≈ 10.8 µM) |
| CCn1cc(C(=O)O)c(=O)c2cc(F)c(N3CCN(CC(=O)Nc4nc5ccc(Cl)cc5s4)CC3)cc21 | 6 µg/mL (≈ 11 µM) |
| O=C(NO)c1cn(C2CC2)c2cc(-n3cc(CN4CCOCC4)nn3)c(F)cc2c1=O | > 64 µg/mL |
| O=C(CN1CCN(c2cc3c(cc2F)c(=O)c(C(=O)O)cn3C2CC2)CC1)Nc1nc2ccc(F)cc2s1 | 6 µg/mL (≈ 11.1 µM) |
| COc1c(N2CCN(CC(=O)Nc3nc4ccc(C)cc4s3)C(C)C2)c(F)cc2c(=O)c(C(=O)O)cn(C3CC3)c12 (stereo unspecified) | 6 µg/mL (≈ 10.4 µM) |
| O=C(N/N=C/c1ccc([N+](=O)[O-])cc1)c1cn(C2CC2)c2cc(N3CCNCC3)c(F)cc2c1=O | > 64 µg/mL |
| COc1c(N2CCN(CC(=O)Nc3nc4c(Cl)ccc(Cl)c4s3)C(C)C2)c(F)cc2c(=O)c(C(=O)O)cn(C3CC3)c12 (stereo unspecified) | 6 µg/mL (≈ 9.46 µM) |
| COc1c(N2CCN(CC(=O)Nc3nc4ccc([N+](=O)[O-])cc4s3)C(C)C2)c(F)cc2c(=O)c(C(=O)O)cn(C3CC3)c12 (stereo unspecified) | 6 µg/mL (≈ 9.83 µM) |
| O=C(NO)c1cn(C2CC2)c2cc(-n3cc(CN4CCNCC4)nn3)c(F)cc2c1=O | > 64 µg/mL |
| COc1c(N2CCN(CC(=O)Nc3nc4ccc(F)cc4s3)C(C)C2)c(F)cc2c(=O)c(C(=O)O)cn(C3CC3)c12 (stereo unspecified) | 6 µg/mL (≈ 10.3 µM) |
| COc1c(N2CCN(CC(=O)Nc3nc4ccc(Cl)cc4s3)C(C)C2)c(F)cc2c(=O)c(C(=O)O)cn(C3CC3)c12 (stereo unspecified) | 6 µg/mL (≈ 10 µM) |

These compounds were tested on Escherichia coli (assay: Antibacterial activity against Escherichia coli assessed as bacterial growth inhibition incubated for 18 hrs by twofold serial dilution assay).
Type: functional

| Compound | MIC |
| --- | --- |
| O=C(CN1CCN(c2cc3c(cc2F)c(=O)c(C(=O)O)cn3C2CC2)CC1)c1cccs1 | 0.0075 µg/mL (≈ 0.0165 µM) |
| O=C(O)c1cn(C2CC2)c2cc(N3CCN(C/C(=N/O)c4ccoc4)CC3)c(F)cc2c1=O | 0.049 µg/mL (≈ 0.108 µM) |
| CCn1cc(C(=O)O)c(=O)c2cc(F)c(N3CCN(CC(=O)c4ccoc4)CC3)nc21 | 0.049 µg/mL (≈ 0.114 µM) |
| CO/N=C(/CN1CCN(c2cc3c(cc2F)c(=O)c(C(=O)O)cn3C2CC2)CC1)c1cccs1 | 0.0075 µg/mL (≈ 0.0155 µM) |
| CCn1cc(C(=O)O)c(=O)c2cc(F)c(N3CCN(C/C(=N/OCc4ccccc4)c4ccoc4)CC3)cc21 | 0.049 µg/mL (≈ 0.092 µM) |
| CCn1cc(C(=O)O)c(=O)c2cc(F)c(N3CCN(C/C(=N/OCc4ccccc4)c4ccoc4)CC3)nc21 | 0.049 µg/mL (≈ 0.0918 µM) |
| O=C(O)c1cn(C2CC2)c2nc(N3CCN(C/C(=N/OCc4ccccc4)c4ccoc4)CC3)c(F)cc2c1=O | 0.049 µg/mL (≈ 0.0898 µM) |
| CCn1cc(C(=O)O)c(=O)c2cc(F)c(N3CCN(C/C(=N/O)c4ccoc4)CC3)cc21 | 0.049 µg/mL (≈ 0.111 µM) |
| O=C(O)c1cn(C2CC2)c2c(F)c(N3CCCNCC3)c(F)cc2c1=O | 0.03 µg/mL (≈ 0.0826 µM) |
| O=C(CN1CCN(c2cc3c(cc2F)c(=O)c(C(=O)O)cn3C2CC2)CC1)c1ccoc1 | 0.049 µg/mL (≈ 0.112 µM) |
| O=C(O)c1cn(C2CC2)c2c(F)c(N3CCNCC(F)C3)c(F)cc2c1=O (stereo unspecified) | 0.03 µg/mL (≈ 0.0787 µM) |
| CCn1cc(C(=O)O)c(=O)c2cc(F)c(N3CCN(C/C(=N/O)c4ccoc4)CC3)nc21 | 0.049 µg/mL (≈ 0.111 µM) |
| O=C(O)c1cn(C2CC2)c2c(F)c(N3CCNCC(O)C3)c(F)cc2c1=O (stereo unspecified) | 0.25 µg/mL (≈ 0.659 µM) |
